US3955959A, “Herbicide for use in transplanted rice” (priority 1974, dated 1976)
Values after ≈ are worked out from the molar mass of the structure shown.

How the values were obtained:
[1] = tested on: transplanted rice (ordinary and infant seedlings); experiment: Example 5 field test, rice yield; type: in vivo; settings: 1.5 kg/ha, 7 DAT
Description: (§1) In the tests described in the tables below, the herbicides were formulated and used in granular form in conventional manner. […] The commercial herbicide used was a granular product having 5% active ingredient.
(§2) In the field tests of the herbicide of this invention with transplanted rice, the rice seedlings were grown in conventional manner, by seeding the rice in a typical seedbed of sandy loam to clay soil of the country wherein the test was conducted. For laboratory and greenhouse work the seedlings were obtained by seeding rice in a mixture of soil, e.g., Ray silt loam, and peat in wood flats. For purposes of testing the herbicides on younger rice seedlings (infant or Dapog) the rice was usually allowed to grow for 6-15 days before lifting for transplanting. Older (ordinary) rice plants were usually grown for a period of about 2-3 weeks, or as much as about 7 weeks before lifting. Since the period of growth is dependent upon climatic conditions, a better measure of when to transplant the rice seedling is the leaf stage of growth; for infant or Dapog rice the seedling is lifted at the 1.5-2 leaf stage of growth, and for ordinary seedlings at the 2.5-5 leaf stage. The seedlings were then transplanted to the test plots for evaluation of the herbicide for injury against weed species present with the transplanted rice. The herbicides were then applied to the growth medium of the weeds and transplant rice, either preemergent or postemergent with respect to the weeds and postemergent with respect to the transplanted rice. Application times are designated in the tables as "DAT", meaning "days after transplant". Application rates given in the tables refer to the amount of active ingredient used.
The rice seedlings were grown to the 1.7 leaf stage for infant seedlings and to the 5.5 leaf stage for ordinary seedlings. Two days after puddling the soil in which the seedlings were to be transplanted, both infant and ordinary seedlings were transplanted into plots 8.5 m^2.
The weed symbol "Obw" represents "other broadleaf weeds" of unspecified identity. Results presented in Table 5 represent the average of 2 replications.

[2] = tested on: Ec (Echinochloa crusgalli); experiment: Example 5 field test, weed control, JAAPR, Japan; type: in vivo; settings: 1.5 kg/ha, 7 DAT
[3] = tested on: Perennials Ek and Sa (Eleocharis kuroguwai, Sagittaria aginashi); experiment: Example 1 field test, perennial weed control, Iri, Korea; type: in vivo; settings: weed weight at 63 DAT
From the text: (§3) In the field test 48 day-old seedlings (Watanabe variety) were transplanted to plots 2.5 × 6 m. seeded with the weed seeds indicated in Table 1. At 5 and 10 DAT periods, the herbicides were applied to the plants (now at the 1.2 and 2.0 leaf stage, respectively, of grass weed) at the indicated rate in kilograms per hectare (kg/ha). The weed control and rice injury results for 3 replications are reported in percentages as of the indicated times of observation. The percentages given in the "Perennials" column are based on the weight of the weeds at 63 DAT, i.e., 42 gms/3.6 m^2 for the weedy check.

[4] = tested on: Grass: Ec and Ecol (Echinochloa crusgalli, Echinochloa colonum); experiment: Example 3 field test on Dapog rice, weed control, Munoz, Philippines; type: in vivo; settings: obs. 42 DAT
From the text: (§4) Treatments were replicated four times.

[5] = tested on: Sedges: Cd, Ci, Fl (Cyperus difformis, Cyperus iria, Fimbristylis littoralis); experiment: Example 4 field test on ordinary rice, weed control, Munoz, Philippines; type: in vivo; settings: obs. 36 DAT
From the text: as §4

[6] = tested on: Grass: Ec and Ecol (Echinochloa crusgalli, Echinochloa colonum); experiment: as above; type: in vivo; settings: obs. 36 DAT
From the text: as §4

transplanted rice [7] = experiment: Example 1 field test, rice yield; type: in vivo, rice (Watanabe variety)
From the text: as §3

Echinochloa crusgalli = experiment: Example 2 field test, weed control, Chia Yi, Taiwan; type: in vivo; settings: obs. 63 DAT
Description: (§5) In the field tests of the herbicide of this invention with transplanted rice, the rice seedlings were grown in conventional manner, by seeding the rice in a typical seedbed of sandy loam to clay soil of the country wherein the test was conducted. For laboratory and greenhouse work the seedlings were obtained by seeding rice in a mixture of soil, e.g., Ray silt loam, and peat in wood flats. For purposes of testing the herbicides on younger rice seedlings (infant or Dapog) the rice was usually allowed to grow for 6-15 days before lifting for transplanting. Older (ordinary) rice plants were usually grown for a period of about 2-3 weeks, or as much as about 7 weeks before lifting. Since the period of growth is dependent upon climatic conditions, a better measure of when to transplant the rice seedling is the leaf stage of growth; for infant or Dapog rice the seedling is lifted at the 1.5-2 leaf stage of growth, and for ordinary seedlings at the 2.5-5 leaf stage. The seedlings were then transplanted to the test plots for evaluation of the herbicide for injury against weed species present with the transplanted rice. The herbicides were then applied to the growth medium of the weeds and transplant rice, either preemergent or postemergent with respect to the weeds and postemergent with respect to the transplanted rice. […] Application rates given in the tables refer to the amount of active ingredient used.

transplanted rice [8] = experiment: Example 2 field test, rice yield; type: in vivo, rice (Tainan No. 5, japonica)
Description: as §1, §2
Rice seedlings (ordinary) of Tainan No. 5 variety (japonica) were transplanted at 19 days of growth. Granular formulations of Herbicides A and B were applied at the 1 leaf stage of grass weed (4 DAT) and 2.5 leaf stage of grass weed (10 DAT). Observations were made at 63 DAT and results reported in Table 2 as an average of 3 replications.

Cyperus difformis = experiment: Example 2 field test, weed control, Chia Yi, Taiwan; type: in vivo; settings: obs. 63 DAT
Description: as §5

[9] = Example 10 fish toxicity, Japanese protocol; type: in vivo, carp; settings: carp, in vivo, read-out: Medium Lethal Concentration
Description: In view of the importance of fish toxicological considerations, tests were conducted, using carp according to the Japanese protocol, to compare toxicity data for Herbicides A and B; results of those tests are shown in Table 10.

[10] = tested on: Broadleaf: Mv, Sz (Monochoria vaginalis, Sphenoclea zeylanica); experiment: Example 4 field test on ordinary rice, weed control, Munoz, Philippines; type: in vivo, Monochoria vaginalis and Sphenoclea zeylanica; settings: obs. 36 DAT
From the text: as §4

With CCCCOCN(C(=O)CCl)c1c(CC)cccc1CC [Herbicide B, n-(butoxymethyl)-2',6'-diethyl-2-chloroacetanilide, reference compound] the “Yield % of H.W.C.” value ([1]; infant seedlings) was 99%, the “Yield % of H.W.C.” value ([1]; ordinary seedlings) was 92% and the “control of Ec in words” value [2] was “substantially complete control”. For the same compound, the “% Weed Control (Ec)” value ([2]; infant seedlings) was 99%, the “% Weed Control (Ec)” value ([2]; ordinary seedlings) was 81% and the “% Weed Control (Perennials Ek and Sa)” value ([3]; 5 DAT, 1.0 kg/ha) was 0%. For the same compound, the “% Weed Control (Perennials Ek and Sa)” value ([3]; 5 DAT, 1.5 kg/ha) was 41%, the “% Weed Control (Perennials Ek and Sa)” value ([3]; 5 DAT, 3.0 kg/ha) was 0% and the “% Weed Control (Perennials Ek and Sa)” value ([3]; 10 DAT, 1.0 kg/ha) was 0%. The “% Weed Control (Perennials Ek and Sa)” value ([3]; 10 DAT, 1.5 kg/ha) was 0%, the “% Weed Control (Perennials Ek and Sa)” value ([3]; 10 DAT, 3.0 kg/ha) was 0% and the “% Weed control, Grass (Ec and Ecol)” value ([4]; 5 DAT, 1.0 kg/ha) was 100%. For the same compound, the “% Weed control, Grass (Ec and Ecol)” value ([4]; 5 DAT, 1.5 kg/ha) was 100%, the “% Weed control, Grass (Ec and Ecol)” value ([4]; 5 DAT, 3.0 kg/ha) was 100% and the “% Weed control, Grass (Ec and Ecol)” value ([4]; 14 DAT, 1.0 kg/ha) was 0%. The “% Weed control, Grass (Ec and Ecol)” value ([4]; 14 DAT, 1.5 kg/ha) was 0%, the “% Weed control, Grass (Ec and Ecol)” value ([4]; 14 DAT, 3.0 kg/ha) was 60% and the “% Weed control, Sedges (Cd, Ci, Fl)” value ([5]; 5 DAT, 1.0 kg/ha) was 100%. The “% Weed control, Sedges (Cd, Ci, Fl)” value ([5]; 5 DAT, 1.5 kg/ha) was 100%, the “% Weed control, Sedges (Cd, Ci, Fl)” value ([5]; 5 DAT, 3.0 kg/ha) was 100% and the “% Weed control, Sedges (Cd, Ci, Fl)” value ([5]; 14 DAT, 1.0 kg/ha) was 0%. The “% Weed control, Sedges (Cd, Ci, Fl)” value ([5]; 14 DAT, 1.5 kg/ha) was 0%, the “% Weed control, Sedges (Cd, Ci, Fl)” value ([5]; 14 DAT, 3.0 kg/ha) was 50% and the “% Weed control, Grass (Ec and Ecol)” value ([6]; 5 DAT, 1.0 kg/ha) was 100%. For the same compound, the “% Weed control, Grass (Ec and Ecol)” value ([6]; 5 DAT, 1.5 kg/ha) was 100%, the “% Weed control, Grass (Ec and Ecol)” value ([6]; 5 DAT, 3.0 kg/ha) was 100% and the “% Weed control, Grass (Ec and Ecol)” value ([6]; 14 DAT, 1.0 kg/ha) was 0%. The “% Weed control, Grass (Ec and Ecol)” value ([6]; 14 DAT, 1.5 kg/ha) was 0%, the “% Weed control, Grass (Ec and Ecol)” value ([6]; 14 DAT, 3.0 kg/ha) was 50% and the yield depression (transplanted rice [7]; 1.0 kg/ha) was “significant yield depression”. For the same compound, the “Yield (% of Hand-weeded Check)” value (transplanted rice [7]; 5 DAT, 1.0 kg/ha) was 95%, the “Yield (% of Hand-weeded Check)” value (transplanted rice [7]; 5 DAT, 1.5 kg/ha) was 100% and the “Yield (% of Hand-weeded Check)” value (transplanted rice [7]; 5 DAT, 3.0 kg/ha) was 99%. The “Yield (% of Hand-weeded Check)” value (transplanted rice [7]; 10 DAT, 1.0 kg/ha) was 95%, the “Yield (% of Hand-weeded Check)” value (transplanted rice [7]; 10 DAT, 1.5 kg/ha) was 97% and the “Yield (% of Hand-weeded Check)” value (transplanted rice [7]; 10 DAT, 3.0 kg/ha) was 100%. For the same compound, the “% Weed Control (Echinochloa crusgalli)” value (Echinochloa crusgalli; 4 DAT, 1.0 kg/ha) was 65%, the “% Weed Control (Echinochloa crusgalli)” value (Echinochloa crusgalli; 4 DAT, 1.5 kg/ha) was 92% and the “% Weed Control (Echinochloa crusgalli)” value (Echinochloa crusgalli; 4 DAT, 3.0 kg/ha) was 97%. The “% Weed Control (Echinochloa crusgalli)” value (Echinochloa crusgalli; 10 DAT, 1.0 kg/ha) was 77%, the “% Weed Control (Echinochloa crusgalli)” value (Echinochloa crusgalli; 10 DAT, 1.5 kg/ha) was 78% and the “% Weed Control (Echinochloa crusgalli)” value (Echinochloa crusgalli; 10 DAT, 3.0 kg/ha) was 98%. The “Yield (% of H.W. Check)” value (transplanted rice [8]; 4 DAT, 1.0 kg/ha) was 110%, the “Yield (% of H.W. Check)” value (transplanted rice [8]; 4 DAT, 1.5 kg/ha) was 103% and the “Yield (% of H.W. Check)” value (transplanted rice [8]; 4 DAT, 3.0 kg/ha) was 99%. For the same compound, the “Yield (% of H.W. Check)” value (transplanted rice [8]; 10 DAT, 1.0 kg/ha) was 97%, the “Yield (% of H.W. Check)” value (transplanted rice [8]; 10 DAT, 1.5 kg/ha) was 98% and the “Yield (% of H.W. Check)” value (transplanted rice [8]; 10 DAT, 3.0 kg/ha) was 99%. The “% Weed Control (Cyperus difformis)” value (Cyperus difformis; 4 DAT, 1.0 kg/ha) was 100%, the “% Weed Control (Cyperus difformis)” value (Cyperus difformis; 4 DAT, 1.5 kg/ha) was 100% and the “% Weed Control (Cyperus difformis)” value (Cyperus difformis; 4 DAT, 3.0 kg/ha) was 100%. The “% Weed Control (Cyperus difformis)” value (Cyperus difformis; 10 DAT, 1.0 kg/ha) was 100%, the “% Weed Control (Cyperus difformis)” value (Cyperus difformis; 10 DAT, 1.5 kg/ha) was 100% and the “% Weed Control (Cyperus difformis)” value (Cyperus difformis; 10 DAT, 3.0 kg/ha) was 100%. For the same compound, the LC50 at 48 h ([9]; 48 hours) was 1 µg/mL (≈ 3.21 µM), the LC50 at 96 h ([9]; 96 hours) was 0.76 µg/mL (≈ 2.44 µM) and the “% Weed control, Broadleaf (Mv,Sz)” value ([10]; 5 DAT, 1.0 kg/ha) was 100%. For the same compound, the “% Weed control, Broadleaf (Mv,Sz)” value ([10]; 5 DAT, 1.5 kg/ha) was 100%, the “% Weed control, Broadleaf (Mv,Sz)” value ([10]; 5 DAT, 3.0 kg/ha) was 100% and the “% Weed control, Broadleaf (Mv,Sz)” value ([10]; 14 DAT, 1.0 kg/ha) was 0%. The “% Weed control, Broadleaf (Mv,Sz)” value ([10]; 14 DAT, 1.5 kg/ha) was 0% and the “% Weed control, Broadleaf (Mv,Sz)” value ([10]; 14 DAT, 3.0 kg/ha) was 50%.
